Literature values, collected in US20260272852A1, “COAGULATION PATHWAY AND NICOTINAMIDE-ADENINE DINUCLEOTIDE PATHWAY MODULATING COMPOSITIONS AND METHODS OF THEIR USE” (L'OREAL, priority 2021, published 2026).

Experiments:
[1] = topical 4% niacinamide treatment
[2] = test system: hyperpigmentation spots, fine lines, and wrinkles; conditions: moisturizer containing 5% niacinamide, half of face, 12 weeks
[3] = test system: suction induced petechia formation; conditions: 0.5% vitamin K1 cream twice daily for one week, ten healthy individuals
[4] = test system: 585-nm pulsed dye laser-induced purpuras

For `NC(=O)c1cccnc1` [niacinamide], the “Treated patients with good-to-excellent results” value [1] is listed as 44% and the “Hyperpigmentation spots, fine lines, and wrinkles, treated side compared to control side” value [2] is listed as “significant improvements”.

In the case of `CC1=C(C/C=C(\C)CCC[C@H](C)CCC[C@H](C)CCCC(C)C)C(=O)c2ccccc2C1=O` [vitamin K1, phylloquinone], the “Influence on suction induced petechia formation” value [3] is listed as “no influence”.

In the case of vitamin K, the “Effect of pretreatment on 585-nm pulsed dye laser-induced purpuras” value [4] is given as “no effect”.
